# Test system: 519858-162-T-J1-PDC complex spheroid viability
# Assay: Anticancer human tumor 519858-162-T-J1-PDC patient-derived colon adenocarcinoma cell line growth inhibition [GQUAD]
# Settings: for IC50: curve of first compound; for viability, T/C: stronger effect = lower value
# How it was run: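 Multi-cell-type spheroids of tumor cells with HUVEC and mesenchymal stem cells, treated with drug combinations. Concentrations descend in half-log steps from near clinical Cmax, or from 10 microM where Cmax is unknown; viability read-out.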
# [1] = second compound 0.0316 µM, first compound 0.0316 µM
# [2] = second compound 0.0316 µM, first compound 0.1 µM
# [3] = second compound 0.0316 µM, first compound 0.316 µM
# [4] = second compound 0.0316 µM, first compound 1 µM
# [5] = second compound 0.0316 µM, first compound 3.16 µM
# [6] = second compound 0.0316 µM, first compound 10 µM
# [7] = second compound 0.1 µM, first compound 0.0316 µM
# [8] = second compound 0.1 µM, first compound 0.1 µM
# [9] = second compound 0.1 µM, first compound 0.316 µM
# [10] = second compound 0.1 µM, first compound 1 µM
# [11] = second compound 0.1 µM, first compound 3.16 µM
# [12] = second compound 0.1 µM, first compound 10 µM
# [13] = second compound 0.316 µM, first compound 0.0316 µM
# [14] = second compound 0.316 µM, first compound 0.1 µM
# [15] = second compound 0.316 µM, first compound 0.316 µM
# [16] = second compound 0.316 µM, first compound 1 µM
# [17] = second compound 0.316 µM, first compound 3.16 µM
# [18] = second compound 0.316 µM, first compound 10 µM
# [19] = second compound 1 µM, first compound 0.0316 µM
# [20] = second compound 1 µM, first compound 0.1 µM
# [21] = second compound 1 µM, first compound 0.316 µM
# [22] = second compound 1 µM, first compound 1 µM
# [23] = second compound 1 µM, first compound 3.16 µM
# [24] = second compound 1 µM, first compound 10 µM
# [25] = second compound 3.16 µM, first compound 0.0316 µM
# [26] = second compound 3.16 µM, first compound 0.1 µM
# [27] = second compound 3.16 µM, first compound 0.316 µM
# [28] = second compound 3.16 µM, first compound 1 µM
# [29] = second compound 3.16 µM, first compound 3.16 µM
# [30] = second compound 3.16 µM, first compound 10 µM
# [31] = second compound 10 µM, first compound 0.0316 µM
# [32] = second compound 10 µM, first compound 0.1 µM
# [33] = second compound 10 µM, first compound 0.316 µM
# [34] = second compound 10 µM, first compound 1 µM
# [35] = second compound 10 µM, first compound 3.16 µM
# [36] = second compound 10 µM, first compound 10 µM
# 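Note: spheroids exposed to compounds for 7 days.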
# 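Throughout, for viability, T/C: 100% = DMSO vehicle control viability.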
smiles,measurement,setting,value
C=CC(=O)N1CCN(c2nc(=O)n(-c3c(C)ccnc3C(C)C)c3nc(-c4c(O)cccc4F)c(F)cc23)C(C)C1 (stereo not drawn) + CN(C)c1ccc(Nc2c3ccc(NC(=O)CCN4CCCC4)cc3nc3cc(NC(=O)CCN4CCCC4)ccc23)cc1,IC50,second compound 0.0316 µM,> 10 µM
same,IC50,second compound 0.1 µM,> 10 µM
same,IC50,second compound 0.316 µM,> 10 µM
same,IC50,second compound 1 µM,> 10 µM
same,IC50,second compound 3.16 µM,> 10 µM
same,IC50,second compound 10 µM,< 0.0316 µM
same,"viability, T/C",[1],91.5%
same,"viability, T/C",[2],84.4%
same,"viability, T/C",[3],61.4%
same,"viability, T/C",[4],69.3%
same,"viability, T/C",[5],94%
same,"viability, T/C",[6],110%
same,"viability, T/C",[7],81.7%
same,"viability, T/C",[8],72.3%
same,"viability, T/C",[9],80.3%
same,"viability, T/C",[10],61.8%
same,"viability, T/C",[11],84.1%
same,"viability, T/C",[12],95.8%
same,"viability, T/C",[13],88.3%
same,"viability, T/C",[14],80.8%
same,"viability, T/C",[15],120%
same,"viability, T/C",[16],68.8%
same,"viability, T/C",[17],84%
same,"viability, T/C",[18],60.1%
same,"viability, T/C",[19],78.8%
same,"viability, T/C",[20],74.4%
same,"viability, T/C",[21],56.4%
same,"viability, T/C",[22],69.3%
same,"viability, T/C",[23],78.7%
same,"viability, T/C",[24],80.3%
same,"viability, T/C",[25],62.3%
same,"viability, T/C",[26],63.9%
same,"viability, T/C",[27],68.8%
same,"viability, T/C",[28],62.2%
same,"viability, T/C",[29],47.6%
same,"viability, T/C",[30],94.9%
same,"viability, T/C",[31],48.2%
same,"viability, T/C",[32],40.3%
same,"viability, T/C",[33],56.7%
same,"viability, T/C",[34],61.5%
same,"viability, T/C",[35],49.2%
same,"viability, T/C",[36],66.5%
CC(=O)O[C@H]1C(=O)[C@@]2(C)[C@H]([C@H](OC(=O)c3ccccc3)[C@]3(O)C[C@H](OC(=O)[C@H](O)[C@@H](NC(=O)c4ccccc4)c4ccccc4)C(C)=C1C3(C)C)[C@]1(OC(C)=O)CO[C@@H]1C[C@@H]2O + CN(C)c1ccc(Nc2c3ccc(NC(=O)CCN4CCCC4)cc3nc3cc(NC(=O)CCN4CCCC4)ccc23)cc1,IC50,second compound 0.0316 µM,> 10 µM
same,IC50,second compound 0.1 µM,> 10 µM
same,IC50,second compound 0.316 µM,> 10 µM
same,IC50,second compound 1 µM,> 10 µM
same,IC50,second compound 3.16 µM,> 10 µM
same,IC50,second compound 10 µM,> 10 µM
same,"viability, T/C",[1],84.6%
same,"viability, T/C",[2],95.5%
same,"viability, T/C",[3],137%
same,"viability, T/C",[4],86.5%
same,"viability, T/C",[5],61.9%
same,"viability, T/C",[6],119%
same,"viability, T/C",[7],74.1%
same,"viability, T/C",[8],134%
same,"viability, T/C",[9],89.5%
same,"viability, T/C",[10],82%
same,"viability, T/C",[11],111%
same,"viability, T/C",[12],98.4%
same,"viability, T/C",[13],89.7%
same,"viability, T/C",[14],86.5%
same,"viability, T/C",[15],96.8%
same,"viability, T/C",[16],69.7%
same,"viability, T/C",[17],92%
same,"viability, T/C",[18],115%
same,"viability, T/C",[19],87.4%
same,"viability, T/C",[20],74.9%
same,"viability, T/C",[21],70.7%
same,"viability, T/C",[22],64.5%
same,"viability, T/C",[23],84.8%
same,"viability, T/C",[24],86.3%
same,"viability, T/C",[25],79.1%
same,"viability, T/C",[26],68.1%
same,"viability, T/C",[27],70.8%
same,"viability, T/C",[28],55.3%
same,"viability, T/C",[29],75.9%
same,"viability, T/C",[30],84.6%
same,"viability, T/C",[31],68.2%
same,"viability, T/C",[32],62.4%
same,"viability, T/C",[33],63.9%
same,"viability, T/C",[34],55.1%
same,"viability, T/C",[35],80.3%
same,"viability, T/C",[36],72.7%
COc1cccc2c1C(=O)c1c(O)c3c(c(O)c1C2=O)CC(O)(C(=O)CO)CC3OC1CC(N)C(O)C(C)O1 (stereo not drawn) + CN(C)c1ccc(Nc2c3ccc(NC(=O)CCN4CCCC4)cc3nc3cc(NC(=O)CCN4CCCC4)ccc23)cc1,IC50,second compound 0.0316 µM,> 10 µM
same,IC50,second compound 0.1 µM,> 10 µM
same,IC50,second compound 0.316 µM,> 10 µM
same,IC50,second compound 1 µM,8.56 µM
same,IC50,second compound 3.16 µM,> 10 µM
same,IC50,second compound 10 µM,> 10 µM
same,"viability, T/C",[1],80.7%
same,"viability, T/C",[2],124%
same,"viability, T/C",[3],97.7%
same,"viability, T/C",[4],72%
same,"viability, T/C",[5],71%
same,"viability, T/C",[6],58.1%
same,"viability, T/C",[7],90.6%
same,"viability, T/C",[8],84.6%
same,"viability, T/C",[9],104%
same,"viability, T/C",[10],80.8%
same,"viability, T/C",[11],60.5%
same,"viability, T/C",[12],60.1%
same,"viability, T/C",[13],88.4%
same,"viability, T/C",[14],58.5%
same,"viability, T/C",[15],79.7%
same,"viability, T/C",[16],65.1%
same,"viability, T/C",[17],62.2%
same,"viability, T/C",[18],75.5%
same,"viability, T/C",[19],85.5%
same,"viability, T/C",[20],71.9%
same,"viability, T/C",[21],56.4%
same,"viability, T/C",[22],100%
same,"viability, T/C",[23],65.2%
same,"viability, T/C",[24],47.1%
same,"viability, T/C",[25],74.9%
same,"viability, T/C",[26],60.6%
same,"viability, T/C",[27],80%
same,"viability, T/C",[28],66.8%
same,"viability, T/C",[29],63.2%
same,"viability, T/C",[30],55.8%
same,"viability, T/C",[31],57.1%
same,"viability, T/C",[32],62.9%
same,"viability, T/C",[33],57.1%
same,"viability, T/C",[34],60.1%
same,"viability, T/C",[35],50.3%
same,"viability, T/C",[36],68.8%
Cn1ncnc1[C@H]1c2n[nH]c(=O)c3cc(F)cc(c23)N[C@@H]1c1ccc(F)cc1 + CN(C)c1ccc(Nc2c3ccc(NC(=O)CCN4CCCC4)cc3nc3cc(NC(=O)CCN4CCCC4)ccc23)cc1,IC50,second compound 0.0316 µM,> 0.316 µM
same,IC50,second compound 0.1 µM,> 0.316 µM
same,IC50,second compound 0.316 µM,> 0.316 µM
same,IC50,second compound 1 µM,> 0.316 µM
same,IC50,second compound 3.16 µM,> 0.316 µM
same,IC50,second compound 10 µM,> 0.316 µM
same,"viability, T/C","second compound 0.0316 µM, first compound 0.000999 µM",74.5%
same,"viability, T/C","second compound 0.0316 µM, first compound 0.00316 µM",119%
same,"viability, T/C","second compound 0.0316 µM, first compound 0.00999 µM",146%
same,"viability, T/C",[1],66.9%
same,"viability, T/C","second compound 0.0316 µM, first compound 0.0999 µM",79.6%
same,"viability, T/C",[3],118%
same,"viability, T/C","second compound 0.1 µM, first compound 0.000999 µM",96%
same,"viability, T/C","second compound 0.1 µM, first compound 0.00316 µM",109%
same,"viability, T/C","second compound 0.1 µM, first compound 0.00999 µM",79%
same,"viability, T/C",[7],103%
same,"viability, T/C","second compound 0.1 µM, first compound 0.0999 µM",104%
same,"viability, T/C",[9],105%
same,"viability, T/C","second compound 0.316 µM, first compound 0.000999 µM",94.4%
same,"viability, T/C","second compound 0.316 µM, first compound 0.00316 µM",139%
same,"viability, T/C","second compound 0.316 µM, first compound 0.00999 µM",99.1%
same,"viability, T/C",[13],84.6%
same,"viability, T/C","second compound 0.316 µM, first compound 0.0999 µM",83%
same,"viability, T/C",[15],109%
same,"viability, T/C","second compound 1 µM, first compound 0.000999 µM",75.3%
same,"viability, T/C","second compound 1 µM, first compound 0.00316 µM",68.4%
same,"viability, T/C","second compound 1 µM, first compound 0.00999 µM",82.2%
same,"viability, T/C",[19],63.5%
same,"viability, T/C","second compound 1 µM, first compound 0.0999 µM",88.9%
same,"viability, T/C",[21],119%
same,"viability, T/C","second compound 3.16 µM, first compound 0.000999 µM",104%
same,"viability, T/C","second compound 3.16 µM, first compound 0.00316 µM",97.8%
same,"viability, T/C","second compound 3.16 µM, first compound 0.00999 µM",78.6%
same,"viability, T/C",[25],63.2%
same,"viability, T/C","second compound 3.16 µM, first compound 0.0999 µM",54.8%
same,"viability, T/C",[27],91.9%
same,"viability, T/C","second compound 10 µM, first compound 0.000999 µM",89.9%
same,"viability, T/C","second compound 10 µM, first compound 0.00316 µM",57.5%
same,"viability, T/C","second compound 10 µM, first compound 0.00999 µM",82.4%
same,"viability, T/C",[31],79.6%
same,"viability, T/C","second compound 10 µM, first compound 0.0999 µM",67.5%
same,"viability, T/C",[33],65.7%
